According to patent publication US11072633B2 (priority 2016, dated 2021):
Values after ≈ are worked out from the molar mass of the structure shown. Values joined by “and” are separate entries in the source; they are usually repeats but may differ in a detail not shown here. Equal entries are not always repeated. Where two headings read alike, the source gives them in different places.

Tests used:
M. tuberculosis H37Rv = format: cell-based
[1] = test system: INH-R1 (derived from H37Rv, katG mutant Y155*); format: cell-based, M. tuberculosis
[2] = test system: RIF-R1 (derived from H37Rv, rpoB mutant S522L); format: cell-based, M. tuberculosis
[3] = test system: FQ-R1 (fluoroquinolone-resistant strain derived from H37Rv, gyrA mutant D94N); format: cell-based, M. tuberculosis

SMILES: COc1nc2ccc(Br)cc2cc1[C@@H](c1ccccc1)[C@@](O)(CCN(C)C)c1cccc2ccccc12 [BDQ, bedaquiline, reference compound]
- Frequencies of resistance (M. tuberculosis H37Rv): 5.5 × 10^−9 and 3.4 × 10^−7

SMILES: CCCN1CC2C(CC[C@@]3(C)C2CC[C@@H]3C(=O)Nc2cc(C(C)(C)C)ccc2C(C)(C)C)[C@@]2(C)CCC(=O)C=C12 (some centres unmarked) [Compound 114]
- Frequencies of resistance (M. tuberculosis H37Rv; 114 5 × MIC with BDQ 5 × MIC): 2 × 10^−7
- Frequencies of resistance (M. tuberculosis H37Rv; 114 5 × MIC, BDQ none): 3.6 × 10^−6
- Frequencies of resistance (M. tuberculosis H37Rv; 114 10 × MIC with BDQ 10 × MIC): 7.8 × 10^−8
- Frequencies of resistance (M. tuberculosis H37Rv; 114 10 × MIC, BDQ none): 1.1 × 10^−7

SMILES: NNC(=O)c1ccncc1 [INH, isoniazid]
- MIC INH-R1 [1]: >200 µM
- MIC RIF-R1 [2]: 0.20 µM (≈ 0.0274 µg/mL)
- MIC FQ-R1 [3]: 0.29 µM (≈ 0.0398 µg/mL)
